# Laboratory results taken from ChEMBL document CHEMBL1201862, “PubChem BioAssay data set” (2004).
#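 A five-concentration, 48-hour dose response in 96-well plates underlies each endpoint, interpolated linearly between surrounding concentrations. GI50 marks 50% less growth.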 Active and inactive are the calls of the source. Cut-off read from the data, not from the text of the source: active = GI50 up to about 1.1 µM and inactive = higher.
# Assays:
# Assay in all cases: inhibition of tumour cell growth, NCI panel, 48 h
# SK-OV-3 = test system: SK-OV-3
# SF-268 = test system: SF-268
# U-251 = test system: U-251
# UO-31 = test system: UO-31
# MDA-MB-435 = test system: MDA-MB-435
# SK-MEL-2 = test system: SK-MEL-2
# MOLT-4 = test system: MOLT-4
# IGROV-1 = test system: IGROV-1
# HCC 2998 = test system: HCC 2998
# SK-MEL-5 = test system: SK-MEL-5
# OVCAR-8 = test system: OVCAR-8
# UACC-257 = test system: UACC-257
# A498 = test system: A498
# RPMI-8226 = test system: RPMI-8226
# DU-145 = test system: DU-145
# LOX IMVI = test system: LOX IMVI
# 786-0 = test system: 786-0
# HCT-15 = test system: HCT-15
# MDA-MB-231 = test system: MDA-MB-231
# K562 = test system: K562
# NCI-H460 = test system: NCI-H460
# SR = test system: SR
# HT-29 = test system: HT-29
# CAKI-1 = test system: CAKI-1
# SNB-19 = test system: SNB-19
# UACC-62 = test system: UACC-62
# SF-539 = test system: SF-539
# OVCAR-3 = test system: OVCAR-3
# HOP-62 = test system: HOP-62
# MCF7 = test system: MCF7
# SF-295 = test system: SF-295
# HL-60 = test system: HL-60
# COLO 205 = test system: COLO 205
# NCI-H23 = test system: NCI-H23
# MDA-N = test system: MDA-N
# HCT-116 = test system: HCT-116
# KM12 = test system: KM12
# T47D = test system: T47D
# SN12C = test system: SN12C
# BT-549 = test system: BT-549
# Hs-578T = test system: Hs-578T
# SNB-75 = test system: SNB-75
# NCI-H522 = test system: NCI-H522
# HOP-92 = test system: HOP-92
# RXF 393 = test system: RXF 393
# SK-MEL-28 = test system: SK-MEL-28
# SW-620 = test system: SW-620
# OVCAR-5 = test system: OVCAR-5
# ACHN = test system: ACHN
# NCI/ADR-RES = test system: NCI/ADR-RES
# M14 = test system: M14
# A549 = test system: A549
# TK-10 = test system: TK-10
# PC-3 = test system: PC-3
# Malme-3M = test system: Malme-3M
# CCRF-CEM = test system: CCRF-CEM
# EKVX = test system: EKVX
# OVCAR-4 = test system: OVCAR-4
# NCI-H226 = test system: NCI-H226
smiles,measurement,setting,value
COC(C(O)CO)C(O)C(O)C(=O)NNc1ccccc1 (configuration not stated),GI50,SK-OV-3,> 100 µM (inactive)
same,GI50,SF-268,23.3 µM (inactive)
same,GI50,U-251,> 100 µM (inactive)
same,GI50,UO-31,> 100 µM (inactive)
same,GI50,MDA-MB-435,40.3 µM (inactive)
same,GI50,SK-MEL-2,38.9 µM (inactive)
same,GI50,MOLT-4,> 100 µM (inactive)
same,GI50,IGROV-1,47.4 µM (inactive)
same,GI50,HCC 2998,> 100 µM (inactive)
same,GI50,SK-MEL-5,37.2 µM (inactive)
same,GI50,OVCAR-8,> 100 µM (inactive)
same,GI50,UACC-257,> 100 µM (inactive)
same,GI50,A498,> 100 µM (inactive)
same,GI50,RPMI-8226,47.5 µM (inactive)
same,GI50,DU-145,> 100 µM (inactive)
same,GI50,LOX IMVI,2.92 µM (inactive)
same,GI50,786-0,> 100 µM (inactive)
same,GI50,HCT-15,> 100 µM
same,GI50,MDA-MB-231,> 100 µM (inactive)
same,GI50,K562,4.05 µM (inactive)
same,GI50,NCI-H460,9.46 µM (inactive)
same,GI50,SR,> 100 µM (inactive)
same,GI50,HT-29,> 100 µM (inactive)
same,GI50,CAKI-1,18.6 µM (inactive)
same,GI50,SNB-19,> 100 µM (inactive)
same,GI50,UACC-62,5.33 µM (inactive)
same,GI50,SF-539,22.4 µM (inactive)
same,GI50,OVCAR-3,> 100 µM (inactive)
same,GI50,HOP-62,> 100 µM (inactive)
same,GI50,MCF7,39.2 µM (inactive)
same,GI50,SF-295,21 µM (inactive)
same,GI50,HL-60,6.32 µM (inactive)
same,GI50,COLO 205,11.7 µM (inactive)
same,GI50,NCI-H23,> 100 µM (inactive)
same,GI50,MDA-N,20 µM (inactive)
same,GI50,HCT-116,> 100 µM (inactive)
same,GI50,KM12,23.6 µM (inactive)
same,GI50,T47D,23.2 µM (inactive)
same,GI50,SN12C,> 100 µM (inactive)
same,GI50,BT-549,> 100 µM (inactive)
same,GI50,Hs-578T,> 100 µM (inactive)
same,GI50,SNB-75,> 100 µM (inactive)
same,GI50,NCI-H522,> 100 µM (inactive)
same,GI50,HOP-92,> 100 µM (inactive)
same,GI50,RXF 393,> 100 µM (inactive)
same,GI50,SK-MEL-28,> 100 µM (inactive)
same,GI50,SW-620,8.49 µM (inactive)
same,GI50,OVCAR-5,> 100 µM (inactive)
same,GI50,ACHN,> 100 µM (inactive)
same,GI50,NCI/ADR-RES,16.5 µM (inactive)
same,GI50,M14,57.7 µM (inactive)
same,GI50,A549,> 100 µM (inactive)
same,GI50,TK-10,> 100 µM (inactive)
same,GI50,PC-3,> 100 µM (inactive)
same,GI50,Malme-3M,> 100 µM (inactive)
same,GI50,CCRF-CEM,42.7 µM (inactive)
same,GI50,EKVX,21.7 µM (inactive)
COc1ccc2c3c1OC1C(F)C=CC4(O)C(C2)NCCC314 (configuration not stated),GI50,SK-OV-3,2.92 µM (inactive)
same,GI50,SF-268,2.59 µM (inactive)
same,GI50,U-251,2.2 µM (inactive)
same,GI50,UO-31,1.55 µM (inactive)
same,GI50,MDA-MB-435,1.52 µM (inactive)
same,GI50,SK-MEL-2,2.38 µM (inactive)
same,GI50,MOLT-4,0.887 µM (active)
same,GI50,IGROV-1,4.81 µM (inactive)
same,GI50,HCC 2998,3.18 µM (inactive)
same,GI50,SK-MEL-5,3.94 µM (inactive)
same,GI50,OVCAR-8,1.94 µM (inactive)
same,GI50,UACC-257,11.1 µM (inactive)
same,GI50,A498,4.47 µM (inactive)
same,GI50,RPMI-8226,0.834 µM (active)
same,GI50,DU-145,2.82 µM (inactive)
same,GI50,LOX IMVI,2.31 µM (inactive)
same,GI50,786-0,1.2 µM (inactive)
same,GI50,HCT-15,2.37 µM
same,GI50,MDA-MB-231,3.27 µM (inactive)
same,GI50,K562,0.805 µM (active)
same,GI50,NCI-H460,4.97 µM (inactive)
same,GI50,OVCAR-4,1.95 µM (inactive)
same,GI50,SR,0.92 µM (active)
same,GI50,HT-29,2.54 µM (inactive)
same,GI50,CAKI-1,0.962 µM (active)
same,GI50,SNB-19,1.81 µM (inactive)
same,GI50,UACC-62,3.37 µM (inactive)
same,GI50,OVCAR-3,1.87 µM (inactive)
same,GI50,HOP-62,2.11 µM (inactive)
same,GI50,MCF7,1.69 µM (inactive)
same,GI50,SF-295,9.18 µM (inactive)
same,GI50,COLO 205,1.44 µM (inactive)
same,GI50,NCI-H23,1.92 µM (inactive)
same,GI50,MDA-N,2.42 µM (inactive)
same,GI50,HCT-116,1.24 µM (inactive)
same,GI50,KM12,3.33 µM (inactive)
same,GI50,T47D,0.753 µM (active)
same,GI50,SN12C,1.98 µM (inactive)
same,GI50,BT-549,1.93 µM (inactive)
same,GI50,NCI-H226,11.2 µM (inactive)
same,GI50,Hs-578T,2.62 µM (inactive)
same,GI50,SNB-75,2.06 µM (inactive)
same,GI50,NCI-H522,0.407 µM (active)
same,GI50,HOP-92,2.87 µM (inactive)
same,GI50,RXF 393,1.62 µM (inactive)
same,GI50,SK-MEL-28,3.07 µM (inactive)
same,GI50,SW-620,1.37 µM (inactive)
same,GI50,OVCAR-5,3.2 µM (inactive)
same,GI50,ACHN,2.65 µM (inactive)
same,GI50,NCI/ADR-RES,3.94 µM (inactive)
same,GI50,M14,1.65 µM (inactive)
same,GI50,A549,7.23 µM (inactive)
same,GI50,TK-10,3.51 µM (inactive)
same,GI50,PC-3,2.07 µM (inactive)
same,GI50,Malme-3M,1.97 µM (inactive)
same,GI50,CCRF-CEM,0.348 µM (active)
same,GI50,EKVX,2.49 µM (inactive)
C#CCOC(=O)c1ccccc1OC(C)=O,GI50,SK-OV-3,> 100 µM (inactive)
same,GI50,SF-268,> 100 µM (inactive)
same,GI50,U-251,> 100 µM (inactive)
same,GI50,UO-31,> 100 µM (inactive)
same,GI50,MDA-MB-435,> 100 µM (inactive)
same,GI50,SK-MEL-2,> 100 µM (inactive)
same,GI50,MOLT-4,> 100 µM (inactive)
same,GI50,IGROV-1,> 100 µM (inactive)
same,GI50,SK-MEL-5,> 100 µM (inactive)
same,GI50,OVCAR-8,> 100 µM (inactive)
same,GI50,UACC-257,> 100 µM (inactive)
same,GI50,A498,> 100 µM (inactive)
same,GI50,RPMI-8226,> 100 µM (inactive)
same,GI50,DU-145,> 100 µM (inactive)
same,GI50,LOX IMVI,> 100 µM (inactive)
same,GI50,786-0,> 100 µM (inactive)
same,GI50,HCT-15,> 100 µM
same,GI50,MDA-MB-231,> 100 µM (inactive)
same,GI50,K562,> 100 µM (inactive)
same,GI50,NCI-H460,> 100 µM (inactive)
same,GI50,OVCAR-4,> 100 µM (inactive)
same,GI50,SR,> 100 µM (inactive)
same,GI50,CAKI-1,> 100 µM (inactive)
same,GI50,SNB-19,> 100 µM (inactive)
same,GI50,UACC-62,> 100 µM (inactive)
same,GI50,SF-539,> 100 µM (inactive)
same,GI50,HOP-62,> 100 µM (inactive)
same,GI50,MCF7,> 100 µM (inactive)
same,GI50,SF-295,> 100 µM (inactive)
same,GI50,HL-60,> 100 µM (inactive)
same,GI50,COLO 205,> 100 µM (inactive)
same,GI50,NCI-H23,> 100 µM (inactive)
same,GI50,MDA-N,> 100 µM (inactive)
same,GI50,HCT-116,> 100 µM (inactive)
same,GI50,KM12,> 100 µM (inactive)
same,GI50,T47D,> 100 µM (inactive)
same,GI50,SN12C,> 100 µM (inactive)
same,GI50,BT-549,> 100 µM (inactive)
same,GI50,NCI-H226,> 100 µM (inactive)
same,GI50,Hs-578T,> 100 µM (inactive)
same,GI50,SNB-75,> 100 µM (inactive)
same,GI50,NCI-H522,> 100 µM (inactive)
same,GI50,HOP-92,> 100 µM (inactive)
same,GI50,RXF 393,> 100 µM (inactive)
same,GI50,SW-620,> 100 µM (inactive)
same,GI50,OVCAR-5,> 100 µM (inactive)
same,GI50,ACHN,> 100 µM (inactive)
same,GI50,NCI/ADR-RES,> 100 µM (inactive)
same,GI50,M14,> 100 µM (inactive)
same,GI50,TK-10,> 100 µM (inactive)
same,GI50,PC-3,> 100 µM (inactive)
same,GI50,CCRF-CEM,> 100 µM (inactive)
same,GI50,EKVX,> 100 µM (inactive)
